The target of test [1] is T1, SmGBP (S. mansoni glutamate-binding protein) (Schistosoma mansoni, UniProt E2IFW0). As to the kind of experiment: [3H]glutamate radioligand competition with unlabelled glutamate, PEG precipitation, purified SmGBP-His. In general terms: Displacement assays read how much labelled ligand stays bound in the presence of the test substance.
The target of test [2] is T1, SmGBP (S. mansoni glutamate-binding protein). As to the kind of experiment: [3H]glutamate radioligand competition at […], purified SmGBP-His. To be noted: read-out: % inhibition at 10 mM.
Test [3] has the same target. The description is as above.

T1 sequence (E2IFW0 entry or part of it): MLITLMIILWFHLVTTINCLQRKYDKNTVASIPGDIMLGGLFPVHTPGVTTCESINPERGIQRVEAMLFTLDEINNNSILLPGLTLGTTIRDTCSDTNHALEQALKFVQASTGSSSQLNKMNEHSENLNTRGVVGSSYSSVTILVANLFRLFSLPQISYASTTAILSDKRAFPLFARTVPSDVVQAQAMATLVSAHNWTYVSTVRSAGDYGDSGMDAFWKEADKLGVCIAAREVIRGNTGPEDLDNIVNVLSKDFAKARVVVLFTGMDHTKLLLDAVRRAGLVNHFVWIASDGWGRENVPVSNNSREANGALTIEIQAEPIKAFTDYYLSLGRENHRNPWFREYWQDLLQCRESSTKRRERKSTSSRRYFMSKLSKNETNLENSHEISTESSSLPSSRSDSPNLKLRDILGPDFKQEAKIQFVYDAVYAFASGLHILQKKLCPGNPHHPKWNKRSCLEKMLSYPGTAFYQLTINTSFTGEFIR

Regarding `N[C@@H](CCC(=O)O)C(=O)O` [glutamate], the concentration for half-maximal inhibition (IC50) in test [1] was 300 ± 50 nM.

With `NC(=O)CC[C@H](N)C(=O)O` [glutamine], the inhibition at 10000 µM in test [2] came out at 77%.

As for `C[C@@](N)(C(=O)O)c1ccc(C(=O)O)cc1` [(S)-MCPG, (S)-a-Methyl-4-carboxyphenylglycine], the “[3H]glutamate radioligand competition at 10 mM, purified SmGBP-His” value (from here on “[3H]glutamate radioligand competition”) in test [3] is “able to compete with [^3H]glutamate, AP4 (mGluR III agonist) and S)-MCPG (mGluRs I/II antagonist) being the strongest”.

Consider `N[C@@H](CCP(=O)(O)O)C(=O)O` [L-AP4, L-(+)-2-Amino-4-phosphonobutyric acid], for which the “[3H]glutamate radioligand competition” value in test [3] was “able to compete with [^3H]glutamate, AP4 (mGluR III agonist) and S)-MCPG (mGluRs I/II antagonist) being the strongest”.

As to `N[C@H](C(=O)O)c1cc(O)cc(O)c1` [(S)-3,5-DHPG, (S)-3,5-Dihydroxyphenylglycine], the “[3H]glutamate radioligand competition” value in test [3] is “also recognized some glutamatergic agents, for example, agonists DHPG and AP4 and the antagonist, MCPG”.

As for `N[C@@H](CC(=O)O)C(=O)O` [aspartate], the inhibition at 10000 µM in test [2] was 84%.

As a reminder, the IC50 is the concentration at which inhibition is half-maximal. Higher therefore signals a need for much substance. Broadly, the inhibition is how much of the control response was suppressed.
